Assay results taken from patent US9963452B2, “Methods, compounds, and compositions for inhibition of ROS” (AUGUSTA PHARMACEUTICALS INC., priority 2013, dated 2018).

Tests used:
Type in all cases: cell-based
[1] = tested on: U87 glioblastoma cell line; assay: In-vitro cell survival assay (Alamar blue), U87; conditions: U87, one day after compound addition
Procedure: (§1) Five tumor-derived cell lines were treated with the ROS inhibitor compounds and cell survival was monitored to determine the cancer prohibition effects of the compounds. The cell lines included HeLa, a cervical cancer cell line, and four glioblastoma cell lines U138, U87, LN18, and U118. The basic protocol for the in-vitro cell survival assay is the same for all five cell lines. In particular, the cells were seeded in 96-well plates at 2-5×10^3 cells/well (cell line dependent) in culture medium. The cells were grown for 2 days before the compounds were dissolved in DMSO and added to final concentrations of 100 uM, 10 uM, or 1 uM (DMSO final concentration 0.5%). The cell culture was then assayed one day after the addition of the compounds. The assay used Alamar blue as a redox-sensitive dye that interrogates mitochondrial fitness of cells, and these assays provided a readout for cell proliferation and viability. The raw values were normalized to an average of several vehicle control wells and are presented as percent decrease in proliferation/viability, which is converted to half maximal effective concentration (EC50) values.

[2] = tested on: U138 glioblastoma cell line; assay: In-vitro cell survival assay (Alamar blue), U138; conditions: U138, one day after compound addition
Procedure: as §1

[3] = tested on: HeLa cervical cancer cell line; assay: In-vitro cell survival assay (Alamar blue), HeLa; conditions: one day after compound addition
Procedure: as §1

[4] = tested on: LN18 glioblastoma cell line; assay: In-vitro cell survival assay (Alamar blue), LN18; conditions: LN18, one day after compound addition
Procedure: as §1

[5] = tested on: U118 glioblastoma cell line; assay: In-vitro cell survival assay (Alamar blue), U118; conditions: U118, one day after compound addition
Procedure: as §1

Row | Structure (SMILES) | EC50 ([1]; 24 h) | EC50 ([2]; 24 h) | EC50 ([3]; Homo sapiens, 24 h) | EC50 ([4]; Homo sapiens, LN-18, 24 h) | EC50 ([5]; 24 h) | EC50 [1] | EC50 [2] | EC50 [3] | EC50 [4] | EC50 [5]
1 | O=C(NCC(c1cccs1)S(=O)(=O)c1ccc(F)cc1)c1ccccc1 (centres unmarked) [drawing 434] | 30 µM | > 100 µM | 77 µM | 21 µM | 54 µM |  |  |  |  | 
2 | O=C(NCCN1CCOCC1)c1cccc(Nc2nccc(Nc3ccc4ncsc4c3)n2)c1 [drawing 411] | 18 µM | > 100 µM | 19 µM | > 100 µM | > 100 µM |  |  |  |  | 
3 | C[C@@H](Oc1cc(-c2cnn(C3CCNCC3)c2)cnc1N)c1c(Cl)ccc(F)c1Cl [drawing 491] | 12 µM | 11.9 µM | 15 µM | 20 µM | 13 µM |  |  |  |  | 
4 | O=C(c1cccc(-c2noc(-c3n[nH]c4c3CCCC4)n2)c1)N1CCCCC1 [drawing 385] | 14 µM | 83 µM | > 100 µM | 62 µM | 83 µM |  |  |  |  | 
5 | CN(C)CC(C)(C)CNC(=O)c1cccc(Nc2nccc(Nc3ccc4ncsc4c3)n2)c1 [drawing 413] | 32 µM | 73 µM | 24 µM | 9 µM | 76 µM |  |  |  |  | 
6 | O=C(NCc1ccco1)c1cccc(Nc2nccc(Nc3ccc4ncsc4c3)n2)c1 [drawing 376] | 21 µM | 35 µM | 10 µM | 10 µM | 18 µM |  |  |  |  | 
7 | O=C(NC[C@@H]1CCCO1)c1cccc(Nc2nccc(Nc3ccc4ncsc4c3)n2)c1 | 16 µM | > 100 µM | 11 µM | 15 µM | > 100 µM |  |  |  |  | 
8 | COc1cccc(Nc2nc(N)c(C(=O)c3c(C)[nH]c4ccccc34)s2)c1 [drawing 384] | 15 µM | 19 µM | 72 µM | 10 µM | 16 µM |  |  |  |  | 
9 | O=C1NCCN1CCN1C(=O)c2ccccc2N[C@H]1c1ccccc1 [drawing 391] | > 100 µM | > 100 µM | > 100 µM | 36 µM | 38 µM |  |  |  |  | 
10 | Nc1cccc2cccc(N=C(CC(=O)O)C(=O)O)c12 [drawing 481] |  | > 100 µM | 63 µM |  | > 100 µM |  |  |  |  | 
11 | O=C(CCn1ccc2ccccc21)Nc1cnccn1 [drawing 477] |  | 92 µM | 64 µM |  | 33 µM |  |  |  |  | 
12 | COc1ccccc1-c1cc(C(F)F)n2ncc(C(=O)NCc3cccnc3)c2n1 [drawing 361] | 22 µM | > 100 µM | > 100 µM | 16 µM | > 100 µM |  |  |  |  | 
13 | Cc1ccc(CNC(=O)c2cccc(Nc3nccc(Nc4ccc5ncsc5c4)n3)c2)o1 [drawing 419] | 16 µM | 19 µM | 10 µM | 7 µM | 17 µM |  |  |  |  | 
14 | Cc1cc(C)c(NC(=O)c2cc3ccccc3c(=O)s2)c(-c2cc(C)[nH]n2)c1 [drawing 400] |  |  |  |  |  | > 100 µM | > 100 µM | > 100 µM | > 100 µM | > 100 µM
15 | Clc1ccc(CNc2cc(-c3ccccc3)ncn2)cc1 [drawing 383] | 38 µM | 62 µM | > 100 µM | 62 µM | 33 µM |  |  |  |  | 
16 | O=C(CC1=Nc2cccc3cccc(c23)NC1=O)NCc1cccc(I)c1 [drawing 483] |  | > 100 µM | 10 µM |  | 51 µM |  |  |  |  | 
17 | Cc1cccc(Nc2nccc(Nc3cccc(C(=O)NC4CCN(C)CC4)c3)n2)c1 [drawing 422] | 18 µM | 20 µM | 25 µM | 5 µM | 60 µM |  |  |  |  | 
18 | Cc1ccc(NC(=O)CCn2ccc3ccccc32)cc1 [drawing 472] |  | > 100 µM | > 100 µM |  | > 100 µM |  |  |  |  | 
19 | O=C(CCn1ccc2ccccc21)Nc1ccc(F)cc1 [drawing 475] |  | > 100 µM | > 100 µM |  | > 100 µM |  |  |  |  | 
20 | CCc1cc(Br)ccc1NC(=O)CCn1ccc2ccccc21 [drawing 478] |  | > 100 µM | 43 µM |  | > 100 µM |  |  |  |  | 

Row | Structure (SMILES) | EC50 ([1]; 24 h) | EC50 ([2]; 24 h) | EC50 ([3]; Homo sapiens, 24 h) | EC50 ([4]; Homo sapiens, LN-18, 24 h) | EC50 ([5]; 24 h) | EC50 [1] | EC50 [2] | EC50 [3] | EC50 [4] | EC50 [5]
21 | CCOC(=O)c1ccc(NC(=O)CCn2ccc3ccccc32)cc1 [drawing 473] |  | > 100 µM | > 100 µM |  | > 100 µM |  |  |  |  | 
22 | COc1ccc(C(F)(F)F)cc1NC(=O)CCn1ccc2ccccc21 [drawing 476] |  | 98 µM | > 100 µM |  | 47 µM |  |  |  |  | 
23 | CC(C)c1nc(Nc2ccc(C(=O)NCc3ccccc3)cc2)nc(Nc2ccc3ncsc3c2)n1 [drawing 459] | 100 µM | 80 µM | 35 µM | 80 µM |  |  |  |  |  | 
24 | CC(C)c1nc(Nc2ccc3ncsc3c2)nc(N2CCCC2)n1 [drawing 451] | > 100 µM | 28 µM | 30 µM | 40 µM |  |  |  |  |  | 
25 | CC(C)c1nc(Nc2ccc3ncsc3c2)nc(N2CCOCC2)n1 [drawing 452] | > 100 µM | 80 µM | 100 µM | 80 µM |  |  |  |  |  | 
26 | CN1CCN(C(=O)c2cccc(Nc3ncc(Cl)c(Nc4ccc5ncsc5c4)n3)c2)CC1 [drawing 466] | 24 µM | 15 µM | 2 µM | 15 µM |  |  |  |  |  | 
27 | CC(C)c1nc(Nc2ccc(N)cc2)nc(Nc2cc(C3CC3)[nH]n2)n1 [drawing 461] | 35 µM | 8 µM | 14 µM | 40 µM |  |  |  |  |  | 
28 | NC(Cc1ccccc1)C(=O)n1ccc2cccnc21 (centres unmarked) [drawing 479] |  | > 100 µM | 45 µM |  | > 100 µM |  |  |  |  | 
29 | O=C(NCC1CCNCC1)c1ccc(Nc2ncc(Cl)c(Nc3ccc4ncsc4c3)n2)cc1 [drawing 468] | > 100 µM | > 100 µM | > 100 µM | > 100 µM |  |  |  |  |  | 
30 | COc1ccc(NC(=O)CCn2ccc3ccccc32)cc1 [drawing 474] |  | > 100 µM | 30 µM |  | > 100 µM |  |  |  |  | 
31 | COc1ccc(NC(=O)CC2=Nc3cccc4cccc(c34)NC2=O)cc1 [drawing 482] |  | > 100 µM | 17 µM |  | > 100 µM |  |  |  |  | 
32 | CC(C)c1nc(Nc2ccc(C(=O)NC3CCCCC3)cc2)nc(Nc2ccc3ncsc3c2)n1 [drawing 456] | 45 µM | 40 µM | 28 µM | 30 µM |  |  |  |  |  | 
33 | Nc1cccc(C2CCN(c3nccc(Nc4ccc5ncsc5c4)n3)CC2)c1 [drawing 439] | 14 µM | 5 µM | 6 µM | 15 µM |  |  |  |  |  | 
34 | NC1CCN(C(=O)c2ccc(Nc3ncc(Cl)c(Nc4ccc5ncsc5c4)n3)cc2)CC1 [drawing 464] | 40 µM | 60 µM | 30 µM | 40 µM |  |  |  |  |  | 
35 | Cc1cc(-c2ccccc2)c2ccc(N)nc2n1 [drawing 480] |  | 46 µM | 58 µM |  | > 100 µM |  |  |  |  | 
36 | CC(C)(C)OC(=O)NC1CCN(C(=O)c2ccc(Nc3ncc(Cl)c(Nc4ccc5ncsc5c4)n3)cc2)CC1 [drawing 446] | 80 µM | 9 µM | 15 µM | 18 µM |  |  |  |  |  | 
37 | CC(C)c1nc(Nc2ccc(C(=O)N3CCOCC3)cc2)nc(Nc2ccc3ncsc3c2)n1 [drawing 460] | > 100 µM | > 100 µM | 35 µM | 80 µM |  |  |  |  |  | 
38 | O=C(c1ccc(Nc2ncc(Cl)c(Nc3ccc4ncsc4c3)n2)cc1)N1CCCCC1 [drawing 443] | > 100 µM | > 100 µM | > 100 µM | > 100 µM |  |  |  |  |  | 
39 | C1=C(c2cccc(Nc3nccc(Nc4ccc5ncsc5c4)n3)c2)CCNC1 [drawing 441] | 40 µM | 25 µM | 13 µM | 22 µM |  |  |  |  |  | 
